# From BindingDB's records for doi:10.1016/j.ejmech.2019.05.010 (Queensland University of Technology, 2019)
# Target: Genome polyprotein (Dengue virus type 2 (strain Thailand/16681/1984), UniProt P29990)
# Experiment: Inhibition of DENV2 NS2B-NS3 serine protease expressed in human Huh7 cells after 3 days by luciferase reporter gene assay
structure (smiles),measurement,value
CC(=O)O[C@H]1CC(C)(C)C(=C=C/C(C)=C/C=C/C=C/C=C(C)/C=C2C=C(/C=C/[C@@]34O[C@]3(C)C[C@@H](O)CC4(C)C)C(=O)O/2)[C@](C)(O)C1,EC50,4.5 µM
